These results are taken from patent US20100041756A1, “METHOD OF MODULATING B CELL FUNCTIONING” (priority 2004, published 2010).

SMILES strings stand for the structures.

The test system of test [1] is B cells activated with LPS. Kind of test: B cell proliferation, BrdU uptake detected by FACS analysis (Example 2). The test is classed as cell-based. The following applies: Mus musculus, LPS-induced, 100 μg/ml tranilast (FIG. 3), read-out: maximum inhibition of proliferation. The procedure: FIG. 3 is a graphical representation of the inhibition of B cell proliferation by tranilast. B-cells were activated in vitro with LPS, and 1-100 μg/ml tranilast. Proliferation was assessed using BrdU uptake, detected by FACs analysis. LPS induced proliferation in 72% of cells.
B cells were prepared for mouse spleen using rat anti-mouse IgM microbeads and the MACS system.
3 spleens were removed from male DBA/1 mice aged 8-12 weeks. A single cell suspension was prepared by cell-sieve.
Cells were cultured at 1×10^6 cells/ml in 2 ml complete RPMI with glutamine (10% FCS, 1% Pen/Strep, 50 μM 2-Mercaptoethanol, 1 mM Na-Pyruvate) for 48 h in the presence of LPS (20 μg/ml), and 100-25 μg/ml tranilast, or vehicle (DMSO).
20 μM BrdU (Sigma) was added to each well, and incubated overnight.
FACS analysis of staining was performed on the BD LSR Flow Cytometer.

For test [2], the system named is DBA/1 mice immunised with type II collagen in CFA. Kind of test: Development of collagen-induced arthritis, treatment from the day of immunisation (Example 4). The test is classed as in vivo, mouse. The procedure: (§1) Type II collagen was purified from bovine cartilage, as described [Williams, R. O. 2004, Methods Mol. Med. 98:207-216] and solubilized by stirring overnight at 4° C. in acetic acid (0.1M) or Tris buffer (0.05 M Tris, containing 0.2 M NaCl, pH 7.4). Tranilast was synthesised by Angiogen Pharmaceuticals Pty. Ltd. For in vivo studies Tranilast was dissolved at a maximum concentration of 10 mg/ml in 1% sodium bicarbonate by heating for 1 h at 70° C. Upon cooling, an emulsion was formed. For in vitro studies Tranilast was dissolved in dimethyl sulphoxide (DMSO). 3-Hydroxy-anthranilic acid (3-HAA) was purchased from Sigma (Poole, UK) and dissolved in PBS.
(§2) Male DBA/1 mice (8-12 weeks old) were immunized intradermally at the base of the tail with bovine type II collagen (200 μg) emulsified in complete Freund's adjuvant (CFA; Difco, West Moseley, UK). Arthritis was monitored clinically using the following scoring system: 0=normal, 1=slight swelling and/or erythema, and 2=pronounced oedematous swelling. Each limb was graded, giving a maximum score of 8 per mouse. In addition, paw-swelling was measured using calipers.
ELISA plates (Nunc, Uxbridge, UK) were coated with 2 μg/ml of bovine CII dissolved overnight in Tris Buffer (0.05 M Tris, containing 0.2 M NaCl, pH 7.4) blocked with 2% bovine serum albumin (BSA) and then incubated with serial dilutions of test sera. A reference sample was included on each plate. Bound total IgG, IgG1 or IgG2a was detected by incubation with HRP-conjugated sheep anti-mouse IgG, IgG1 or IgG2a, followed by TMB substrate. Optical density was measured at 450 nm.
In order to assess its anti-arthritic potential, Tranilast was injected into DBA/1 mice (200 mg/kg/day) from the day of immunisation with type II collagen in CFA. By day 28, 5 of 7 (71%) vehicle treated mice had developed arthritis of moderate severity (clinical score 2.8±0.6), whilst 1 of 7 (14%) Tranilast-treated mice had developed mild arthritis (clinical score 1).

In test [3] the test system is DBA/1 mice with established CIA. Kind of test: Treatment of established CIA (Example 4): clinical score, paw-swelling, histology, relapse. The test is classed as in vivo, mouse. The procedure: FIG. 6 is a graphical representation of the treatment of established CIA with 3,4-DAA. DBA/1 mice were immunised with type II collagen in CFA and monitored for development of arthritis. On day 1 of arthritis, mice were injected intraperitoneally with 3,4-DAA on a daily basis. Paw thickness was measured with callipers. The clinical scoring system was as follows: 0=normal, 1=slight swelling and/or erythema, and 2=pronounced oedematous swelling. Each limb was graded, giving a maximum score of 8 per mouse. Histological assessment of arthritis was carried out on haematoxylin and eosin stained sections using a scoring system as follows: 0, normal; 1, minimal synovitis without cartilage/bone erosion; 2, synovitis with some marginal erosion but joint architecture maintained; 3, severe synovitis and erosion with loss of normal joint architecture. There were 14 mice/group (data pooled from two separate experiments). *, P<0.05 (compared to control group).
FIG. 9 is a graphical representation depicting the relapse of arthritis 4 days after cessation of therapy. Mice with established CIA (n=6) were treated with 3,4-DAA (400 mg/kg/day) from days 1 to 5 of arthritis and clinical severity of arthritis was monitored up to day 12. Arthritis is seen to relapse at around day 9.
as §1, §2
Histopathological assessment of arthritis was carried out in a blinded fashion on decalcified haematoxylin and eosin stained sections using a scoring system as follows: 0, normal; 1, minimal synovitis without cartilage/bone erosion; 2, synovitis with some marginal erosion but joint architecture maintained; 3, severe synovitis and erosion with loss of normal joint architecture. This research was approved by the local ethical review process committee and by the Home Office of Great Britain.
The ability of Tranilast to treat established CIA was tested. Mice were immunised with type II collagen in CFA. On day 1 of clinical arthritis (the day that arthritis was first observed) mice were randomly assigned to different treatment groups and given Tranilast (100 mg/kg/day, 200 mg/kg/day or 400 mg/kg/day) or vehicle alone over a 10 day period. […]
It is clearly of interest to establish what happens when treatment with Tranilast is stopped. […] Treatment was then stopped and mice were monitored for a further 7 days.

The mark [4] stands for this setting: 100, 200 or 400 mg/kg/day, 10 days (FIG. 6).

`COc1ccc(/C=C/C(=O)Nc2ccccc2C(=O)O)cc1OC` [Tranilast, 2-[[3-(3,4-dimethoxyphenyl)-1-oxo-2-propenyl]amino]benzoic acid]: in test [1], the inhibition at 100 µg/mL is 75%. Also, the “anti-collagen IgG1 or IgG2a levels in sera” value in test [2] (200 mg/kg/day from the day of immunisation) was “no change”. In test [2] (200 mg/kg/day from the day of immunisation, 1 of 7 mice), the “mice that had developed arthritis by day 28” value is listed as 14%. In test [2] (day 28, 200 mg/kg/day from the day of immunisation), this molecule had a clinical score of 1. The “day of relapse (exacerbation) of arthritis after cessation of therapy” value in test [3] (400 mg/kg/day days 1 to 5, monitored up to day 12 (FIG. 9)) is 9 days. Besides, the “arthritis severity during the treatment period” value in test [3] (400 mg/kg/day, day 1 to day 5 of arthritis (FIG. 9)) is given as “dramatic reduction in arthritis severity”. In test [3] (setting [4]), the clinical scores entry was “dose-dependent reduction” and the paw-swelling result is on record as “dose-dependent reduction”. Besides, the “histological severity of arthritis” value in test [3] (day 10 (FIG. 6)) is “clear dose-dependent reduction”.
